Source: patent US9291629B2, “Adiponectin receptor C-terminal fragments (CTF)-immunoglobulin” (Siemens Healthcare Diagnostics Inc., priority 2011, dated 2016)

Tests used:
mouse myocytes (C2C12) = test: Western blot of CTF immunoglobulin in induced mouse myocytes (C2C12); assay type: cell-based; settings: for Increase of CTF immunoglobulin on treatment of cell cultures: myocyte cell culture; for Primarily observed immunoglobulin chains with CTF: treated myocyte, denatured western blot of lysates
Procedure: (§1) Samples and homogenates with protein concentration of about 20 ug/ml were boiled in water for 5 minutes in buffer with SDS and chilled on ice to denature the protein. The sample was then centrifuged to remove precipitate and was boiled sample 1:1 with BioRad Laemmli buffer with 5% beta-mercaptoethanol to break the disulfide bonds. The treated samples were loaded onto the 12% or 10% Ready Gel (Biorad) and SDS-PAGE gel was run in Tris, glycine, SDS buffer (BioRad) at 110V (BioRad PROTEAN® Tetra Cel) for 1-1.5 hours until the bromophenol blue reached the bottom of the gel. Gel plates were disassembled, soaked in transfer buffer and the gels were transferred to 0.2 um nitrocellulose paper at 30V in a 4° C. chamber overnight.
(§2) After the protein transfer, the nitrocellulose was rinsed and washed with TTBS buffer (20 mM Tris, 500 mM NaCl, pH 7.4, 0.1% Tween®-20). The membrane was then blocked with 5% BSA in TTBS at room temperature with gentle agitation. The blocking buffer was then removed and the membrane was incubated with antibodies conjugated to alkaline phosphatase or horse radish peroxidase. For AdipoR1 CTF, the mAb 444-1D12 conjugated to alkaline phosphatase was used (2.5 mg/ml diluted 1:1000 Siemens Healthcare Diagnostics). The membrane with antibody conjugate was incubated at room temperature for 3 hours or at 4° C. overnight with gentle agitation. The antibody was then discarded and the gel was washed three times with TTBS for 5 minutes each. The membrane was incubated with the alkaline phosphate or horse radish peroxidase substrate and the color developed and recorded. In some cases the membrane was imaged by exposure to X-ray film (Fisher) at a desired time (3 seconds to 10 minutes) and then developed using Kodak® GBX developer/fixer.
(§3) Cell culture mouse myocytes (C2C12) and green monkey epithelial cell (VERO) (American Type Cell Culture, ATCC, Manassa Va.) were maintained in culture using RPMI-1640 media, while normal cells were maintained with modified Eagle's medium (MEM). Both media contained 2 mM glutamine, penicillin (50 units/ml), streptomycin (50 μg/ml), and 10% fetal bovine serum. The media was cytokine free. Cells were grown at 37° C. in an atmosphere of 95% air and 5% CO2 and propagated by splitting with 1 to 4 dilutions using PBS/EDTA at cell growth confluence. Cell lines were synchronized and induced with R1 CTF25 SEQ ID NO:11 or globular adiponectin.
(§4) Both cell lines expressed Adiponectin receptor 1 and lysates from both cell lines contained CTF immunoglobulin, comprising the heavy chain and full IgG but without the light chain form on denatured Western blots. As these are cell cultures grown in fetal bovine serum containing bovine IgG, the cells attach CTF to IgG. […]

[1] = tested on: green monkey epithelial cell (VERO); test: Western blot of CTF immunoglobulin in induced green monkey epithelial cells (VERO); assay type: cell-based; settings: for Increase of CTF immunoglobulin on treatment of cell cultures: epithelial cell culture; for Primarily observed immunoglobulin chains with CTF: treated epithelial cells, denatured western blot of lysates
Procedure: as §1, §2, §3, §4

CTF immunoglobulin = test: Western blot of CTF immunoglobulin in tissues of diabetic rats treated with AdipoR1 CTF25; assay type: in vivo; settings: for Primarily observed immunoglobulin chains with CTF: treated diabetic rats
Procedure: Western blot analyses were run on human plasma, pancreas, adipose, liver and muscles tissue, as well as myocytes and epithelial cell culture homogenates according to the following methods and variations thereof.
as §1, §2
The results of the western blots obtained on liver, pancreas, muscle and mesenteric tissues of normal rats, diabetic rats and diabetic rats treated with AdipoR1 CTF25 (SEQ ID NO: 11) are shown in Table 3. Results are typical for all monoclonal antibodies to CTF AdipoR1 and AdipoR2 and treatments tested. All of the tissues show the presence of CTF immunoglobulins. […] Differences in the amount of immunoglobulin chains with CTF were observed between individual rat and between normal and diabetic rats. All tissues contained IDE and TACE.

| Substance | Increase of CTF immunoglobulin on treatment of cell cultures (mouse myocytes (C2C12)) | Primarily observed immunoglobulin chains with CTF (mouse myocytes (C2C12)) | Increase of CTF immunoglobulin on treatment of cell cultures [1] | Primarily observed immunoglobulin chains with CTF [1] | Increase of CTF immunoglobulin bands on treatment (CTF immunoglobulin; rat tissues) | Primarily observed immunoglobulin chains with CTF (CTF immunoglobulin; liver) | Primarily observed immunoglobulin chains with CTF (CTF immunoglobulin; mesenteric tissues) | Primarily observed immunoglobulin chains with CTF (CTF immunoglobulin; muscle) | Primarily observed immunoglobulin chains with CTF (CTF immunoglobulin; pancreas) |
| --- | --- | --- | --- | --- | --- | --- | --- | --- | --- |
| adiponectin [reference compound] | did not increase CTF immunoglobulin bands | Heavy chains & full | did not increase CTF immunoglobulin bands | Heavy chains & full | – | – | – | – | – |
| HFYGVSNLQEFRYGLEGGCTDDTLL [AdipoR1 CTF25] | did not increase CTF immunoglobulin | Heavy chains & | did not increase CTF immunoglobulin | Heavy chains & | did not increase bands | Light chains | Heavy & light | Heavy & light | Heavy chain |
